Assay results as given in PMC8878317, “Chemogenomics identifies acetyl-coenzyme A synthetase as a target for malaria treatment and prevention” (Cell Chemical Biology, 2022).
Read-outs that look alike come from different tables or passages of the source.

What was measured:
Format in all cases: cell-based
[1] = system: P. falciparum Dd2:T648M (CRISPR edited PfAcAS); assay: Blood-stage dose-response assay, CRISPR-edited Dd2:T648M line; conditions: Plasmodium falciparum, mean ± SD, n bioreplicates
Procedure: (§1) For in vitro–selected lines, drug susceptibility was measured by SYBR Green I–based assay ([Johnson et al., 2007]; [Smilkstein et al., 2004]). Ring-stage parasites were cultured for 72 hr at 1% hematocrit and 1% starting parasitemia in 384-well black clear-bottom plates containing test compounds plated in triplicate in 12-point serial dilutions. Lysis buffer (0.16% w/v saponin, 1.6% Triton X-100, 5 mM EDTA, and 20 mM Tris-HCl, pH 7.4) with SYBR Green I fluorescent dye (Invitrogen) was added, and fluorescence readings were taken (excitation at 494 nm, emission at 530 nm). Alternatively, Dd2-B2 ring-stage cultures at 0.3% parasitemia and 1% hematocrit were exposed for 72 hr to a range of ten drug concentrations that were 2-fold serially diluted in duplicates along with drug-free controls. Parasite survival was assessed by flow cytometry on an Accuri C6 (BD Biosciences) using SYBR Green and MitoTracker Deep Red FM (Life Technologies) as nucleic acid stain and vital dyes respectively. EC50 values were calculated using a nonlinear regression curve fit in Prism Software version 8 (GraphPad).
(§2) Mutant PfAcAS-A597V and PfAcAS-T648M parasites were generated using CRISPR/Cas9. The guide RNAs for PfAcAS-A597V (5′-[…]-3′; 5′-[…]-3′) and for PfAcAS-T648M (5′-[…]-3′) were designed using Benchling (https://benchling.com/) to targeting sites in PfAcAS that were 6-14 bp upstream of the A597 codon and 6 bp downstream of the T648 codon respectively. Complementary oligos encoding the gRNA sequences (5′- tatt[…]-3’ / 5’-aaac[…]-3’; 5’-tatt[…]-3’ / 5’-aaac[…]-3’ and 5’- tattg[…]-3’ / 5’-aaac[…]c-3’ ) were phosphorylated using T4 polynucleotide kinase and annealed (95°C for 5 min, then step down of 5°C/min to 25°C) prior to ligation into the BbsI-digested pDC2-coCas9-U6.2-hDHFR plasmid ([Lim et al., 2016]). The donor template for PfAcAS-A597V was synthesized (ThermoFisher) as a 700 bp Genestring fragment spanning position 1468 to 2168 of the PfAcAS gene, and the donor for PfAcAS-T648M synthesized as a 829 bp fragment spanning position 1468 to 2297 and inserted into the AatII/EcoRI sites of the pDC2-coCas9-gRNA-hDHFR plasmid by Gibson assembly. Ring-stage parasites (Dd2) at 5% parasitemia were transfected by electroporation (BioRad Gene Pulser II at 0.310 kV and 950 μF) with 50 μg of each plasmid (plasmid 1: pDC2-coCas9-AcAS-A597V-gRNA1-hDHFR, plasmid 2: pDC2-coCas9-gRNA2-hDHFR, or plasmid 3: pDC2-coCas9-AcAS-T648M-gRNA1-hDHFR), and parasites selected for 10 days with 2.5 nM WR99210 (Jacobus Pharmaceuticals), followed by removal of drug pressure. After confirmation of editing in the bulk culture, clones were isolated by serial limiting dilution and confirmed by Sanger sequencing after PCR amplification from genomic DNA using forward primer 5′-[…]-3′ and reverse primer 5′-[…]-3′ (for A597V) and 5′-[…]-3′ (for T648M).

[2] = system: P. falciparum 3D7-A10; assay: Blood-stage dose-response assay (SYBR Green I, 72 hr), 3D7 / 3D7-A10 parent; conditions: Plasmodium falciparum
Procedure: (§3) The 3D7-A10 clone has been used in previous in vitro drug selection and sequencing efforts ([Cowell et al., 2018]). Dd2 parasites were obtained from T. Wellems (NIAID, NIH). Dd2-B2 is a genetically homogeneous line that was cloned from Dd2 by limiting dilution in the Fidock lab. Parasite strains were cultured in 3-5% human O+ hematocrit in RPMI 1640 (Life Technologies) supplemented with 28 mM NaHCO3, 25 mM HEPES, and hypoxanthine ([…]). Depending on the parasite line, the media either contained gentamycin (25 μg/mL), or no antibiotic and was additionally supplemented with 0.5% AlbuMAX II (Life Technologies) and/or O+ human serum (heat inactivated and pooled). Blood and serum products were obtained from Interstate Blood Bank. Cultures were maintained at 37°C in 1.1% O2, 4% CO2, and 95% N2. Parasite populations were synchronized by 5% sorbitol treatment ([Lambros and Vanderberg, 1979]).
as §1

[3] = system: P. falciparum Dd2-B2; assay: Blood-stage dose-response assay (72 hr), Dd2 / Dd2-B2 parent; conditions: Plasmodium falciparum
Procedure: as §3, §1

[4] = system: P. falciparum Dd2:A597V (CRISPR edited PfAcAS); assay: Blood-stage dose-response assay, CRISPR-edited Dd2:A597V line; conditions: Plasmodium falciparum, mean ± SD, n bioreplicates
Procedure: as §1, §2

[5] = system: liver-stage P. berghei parasites (Pbluc); assay: Liver-stage P. berghei assay (Pbluc); conditions: Plasmodium berghei
[6] = mean ± SD, n bioreplicates, read-out: 3D7-A10 parent EC50 ± SD
[7] = DD2, read-out: Dd2-B2 parent EC50 ± SD (nM)

Compound	EC50 [1]	EC50 [2, 6]	EC50 [3, 7]	EC50 [4]	EC50 ([2]; blood-stage parasites in vitro, read-out: P. falciparum 3D7 half-maximal effective concentration [EC50])	EC50 [5]	EC50 ([3]; DD2, read-out: P. falciparum Dd2 EC50)	EC50 ([3]; DD2, read-out: mean EC50 (nM) ± SD (n))
O=C1C(O)=C([C@H]2CC[C@H](c3ccc(Cl)cc3)CC2)C(=O)c2ccccc21 [Atovaquone, reference compound]	0.69 ± 0.38 nM	0.42 ± 0.05 nM	0.3 ± 0.13 nM	0.55 ± 0.35 nM				
CCN(CC)S(=O)(=O)c1ccc(Cl)c(C(=O)Nc2ccc3nc(C)sc3c2)c1 [MMV019721]	8200 nM	400 ± 58 nM	400 ± 72 nM	6200 nM	460 ± 100 nM	2100 nM	400 ± 72 nM	400 ± 72 nM
O=C(NNC(=O)c1csnn1)c1ccc(Cl)cc1 [MMV084978]	12000 nM	110 ± 28 nM	150 ± 36 nM	43000 nM		520 ± 210 nM		
